The source of these data is patent publication US9926297B2, “Bicyclic AZA compounds as muscarinic M1 receptor and/or M4 receptor agonists” (Heptares Therapeutics Limited, priority 2014, dated 2018).

As usually defined, the Emax is the size of the effect at its maximum, as opposed to the concentration needed.

SMILES strings stand for the structures. A value given as a limit tells only on which side of the number the result lay.

The target in experiment [1] is T1, human muscarinic M1 receptor (Homo sapiens, UniProt P11229).
T1 sequence (P11229 1-460): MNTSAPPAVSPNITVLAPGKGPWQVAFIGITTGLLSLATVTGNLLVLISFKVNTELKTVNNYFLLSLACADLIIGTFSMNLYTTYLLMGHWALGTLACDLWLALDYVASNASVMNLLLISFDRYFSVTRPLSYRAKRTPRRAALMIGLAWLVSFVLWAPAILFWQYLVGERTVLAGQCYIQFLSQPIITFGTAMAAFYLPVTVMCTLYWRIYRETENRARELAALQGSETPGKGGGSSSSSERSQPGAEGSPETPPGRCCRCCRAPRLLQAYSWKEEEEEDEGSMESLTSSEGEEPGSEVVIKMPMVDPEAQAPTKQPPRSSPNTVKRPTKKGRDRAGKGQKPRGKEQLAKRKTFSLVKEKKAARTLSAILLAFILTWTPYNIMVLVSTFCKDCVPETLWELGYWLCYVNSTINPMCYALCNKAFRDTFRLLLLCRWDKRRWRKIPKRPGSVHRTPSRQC
Kind of experiment: Alphascreen Surefire phospho-ERK1/2 functional assay, M1. It is filed as cell-based. The settings on record: for EC50: CHO cells stably expressing human M1, phospho-ERK1/2, * = variable results, read-out: pEC50 M1 (converted); for Emax: CHO, read-out: % Emax cf. ACh, M1, CHO cells stably expressing human M1, relative to ACh. Background: Bead proximity is the source of the signal in Alpha formats.

Experiment [2] addresses T2, human muscarinic M4 receptor (Homo sapiens, UniProt P08173).
T2 construct: expressed in transfected cells
T2 sequence (P08173 1-479): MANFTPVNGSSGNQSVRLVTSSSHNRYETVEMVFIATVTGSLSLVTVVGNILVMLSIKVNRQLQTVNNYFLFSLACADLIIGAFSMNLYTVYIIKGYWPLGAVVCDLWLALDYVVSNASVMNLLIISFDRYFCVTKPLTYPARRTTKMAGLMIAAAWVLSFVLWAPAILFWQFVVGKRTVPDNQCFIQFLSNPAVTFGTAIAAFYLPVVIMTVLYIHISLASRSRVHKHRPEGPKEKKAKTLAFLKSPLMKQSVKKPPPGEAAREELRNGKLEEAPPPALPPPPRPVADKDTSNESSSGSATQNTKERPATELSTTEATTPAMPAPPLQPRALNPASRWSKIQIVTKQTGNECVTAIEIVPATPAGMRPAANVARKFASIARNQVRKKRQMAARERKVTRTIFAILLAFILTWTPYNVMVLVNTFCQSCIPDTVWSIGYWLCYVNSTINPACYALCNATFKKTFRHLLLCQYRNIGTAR
Kind of experiment: Alphascreen Surefire phospho-ERK1/2 functional assay, M4. The settings on record: for EC50: CHO cells stably expressing human M4, phospho-ERK1/2, * = variable results, read-out: pEC50 M4 (converted); for Emax: CHO, read-out: % Emax cf. ACh, M4, CHO cells stably expressing human M4, relative to ACh. The experiment is classed as cell-based.
Experimental: CHO cells stably expressing the human muscarinic M1, M2, M3 or M4 receptor were plated (25K/well) onto 96-well tissue culture plates in MEM-alpha+10% dialysed FBS. Once adhered, cells were serum-starved overnight. Agonist stimulation was performed by the addition of 5 μL agonist to the cells for 5 min (37° C.). Media was removed and 50 μL of lysis buffer added. After 15 min, a 4 μL sample was transferred to 384-well plate and 7 μL of detection mixture added. Plates were incubated for 2 h with gentle agitation in the dark and then read on a PHERAstar plate reader.
pEC50 and Emax figures were calculated from the resulting data for each receptor subtype.

Consider `CCOC(=O)N1CCC2(CC(N3CCC(c4nccn4CC(=O)NC)CC3)C2)C1` (single isomer, unassigned) [1-54 Isomer 2, ethyl 2-(4-{1-[2-(methylamino)-2-oxoethyl]-1H-imidazol-2-yl}piperidin-1-yl)-6-azaspiro[3.4]octane-6-carboxylate], for which the figures for the EC50 in experiment [1] and in experiment [2] were > 20000 nM and 794 nM, respectively. The Emax was 51% in experiment [1] and 74% in experiment [2].

As to `COC(=O)N1CCC2(CC(N3CCC(c4nn(C)cc4C)CC3)C2)C1` (single isomer, unassigned) [1-55 Isomer 2, methyl 2-[4-(1,4-dimethyl-1H-pyrazol-3-yl)piperidin-1-yl]-6-azaspiro[3.4]octane-6-carboxylate], in experiment [1], the EC50 was 5010 nM and the Emax is 40%. In experiment [2], the EC50 is 501 nM and the Emax came to 64%.

Regarding `CCOC(=O)N1CCC2(CC(N3CCC(c4c(C)cnn4CC)CC3)C2)C1` (single isomer, unassigned) [1-59 Isomer 2, ethyl 2-[4-(1-ethyl-4-methyl-1H-pyrazol-5-yl)piperidin-1-yl]-6-azaspiro[3.4]octane-6-carboxylate], the figures for the EC50 in experiment [1] and in experiment [2] were 398 nM and 100 nM, respectively. Also, the results for the Emax in experiment [1] and in experiment [2] were 38% and 76%, respectively.

`CCOC(=O)N1CCC2(CC(N3CCC(c4c(CC)cnn4C)CC3)C2)C1` (single isomer, unassigned) [1-60 Isomer 2, ethyl 2-[4-(4-ethyl-1-methyl-1H-pyrazol-5-yl)piperidin-1-yl]-6-azaspiro[3.4]octane-6-carboxylate]: the EC50 is 316 nM in experiment [1] and 39.8 nM in experiment [2]. The Emax stood at 82% in experiment [1] and 88% in experiment [2].

`CCOC(=O)N1CCC2(CC(N3CCC(n4cnnn4)CC3)C2)C1` (single isomer, unassigned) [1-62 Isomer 2, ethyl 2-[4-(1H-tetrazol-1-yl)piperidin-1-yl]-6-azaspiro[3.4]octane-6-carboxylate]: in experiment [1], the EC50 is 1260 nM and the Emax came to 73%. In experiment [2], the EC50 is > 20000 nM and the Emax was 10%.

On to `CCOC(=O)N1CCC2(CC(N3CCC(n4nnnc4C)CC3)C2)C1` (single isomer, unassigned) [1-63 Isomer 2, ethyl 2-[4-(5-methyl-1H-tetrazol-1-yl)piperidin-1-yl]-6-azaspiro[3.4]octane-6-carboxylate], for which, in experiment [1], the EC50 was > 20000 nM and the Emax amounted to 82%. In experiment [2], the EC50 was 1000 nM and the Emax was determined as 24%.

On to `CCOC(=O)N1CCC2(CC(N3CCC(c4nnnn4C)CC3)C2)C1` (single isomer, unassigned) [1-64 Isomer 2, ethyl 2-[4-(1-methyl-1H-tetrazol-5-yl)piperidin-1-yl]-6-azaspiro[3.4]octane-6-carboxylate], for which, in experiment [1], the EC50 is 5010 nM and the Emax stood at 40%. Moreover, in experiment [2], the EC50 was 316 nM and the Emax came to 78%.

For `CCOC(=O)N1CCC2(CC(N3CCC(c4nnnn4CC)CC3)C2)C1` (single isomer, unassigned) [1-65 Isomer 2, ethyl 2-[4-(1-ethyl-1H-tetrazol-5-yl)piperidin-1-yl]-6-azaspiro[3.4]octane-6-carboxylate], in experiment [1], the EC50 was > 20000 nM and the Emax was found to be 60%. In experiment [2], the EC50 was 251 nM and the Emax was found to be 73%.

In the case of `CCOC(=O)N1CCC2(CC(N3CCC(c4nnn(CC)n4)CC3)C2)C1` (single isomer, unassigned) [1-66 Isomer 2, ethyl 2-[4-(2-ethyl-2H-tetrazol-5-yl)piperidin-1-yl]-6-azaspiro[3.4]octane-6-carboxylate], in experiment [1], the EC50 is > 20000 nM and the Emax came out at 14%. For the same compound, in experiment [2], the EC50 was 251 nM and the Emax turned out to be 32%.

Turning to `CCOC(=O)N1CCC2(CC(N3CCC(c4nnnn4C4CC4)CC3)C2)C1` (single isomer, unassigned) [1-67 Isomer 2, ethyl 2-[4-(1-cyclopropyl-1H-tetrazol-5-yl)piperidin-1-yl]-6-azaspiro[3.4]octane-6-carboxylate], in experiment [1], the EC50 was 3160 nM and the Emax amounted to 37%. In experiment [2], the EC50 is 316 nM and the Emax came to 75%.

In the case of `[2H]C([2H])(C)OC(=O)N1CCC2(CC(N3CCC(n4cccn4)CC3)C2)C1` (single isomer, unassigned) [1-68 Isomer 2, (1,1-^2H2)ethyl 2-[4-(1H-pyrazol-1-yl)piperidin-1-yl]-6-azaspiro[3.4]octane-6-carboxylate], in experiment [1], the EC50 is 79.4 nM and the Emax came out at 91%. For the same compound, in experiment [2], the EC50 was 6.31 nM and the Emax worked out at 98%.

Take `[2H]C([2H])([2H])COC(=O)N1CCC2(CC(N3CCC(n4cccn4)CC3)C2)C1` (single isomer, unassigned) [1-69 Isomer 2, (2,2,2-^2H3)ethyl 2-[4-(1H-pyrazol-1-yl)piperidin-1-yl]-6-azaspiro[3.4]octane-6-carboxylate]: in experiment [1], the EC50 was 79.4 nM and the Emax came out at 99%. In addition, in experiment [2], the EC50 was 5.01 nM and the Emax stood at 104%.

On to `[2H]C([2H])([2H])C([2H])([2H])OC(=O)N1CCC2(CC(N3CCC(n4cccn4)CC3)C2)C1` (single isomer, unassigned) [1-70 Isomer 2, (^2H5)ethyl 2-[4-(1H-pyrazol-1-yl)piperidin-1-yl]-6-azaspiro[3.4]octane-6-carboxylate], for which, in experiment [1], the EC50 is 79.4 nM and the Emax turned out to be 92%. In experiment [2], the EC50 was 5.01 nM and the Emax is 101%.

For `[2H]C([2H])(C)OC(=O)N1CCC2(CC(N3CCC(c4ccnn4C)CC3)C2)C1` (single isomer, unassigned) [1-71 Isomer 2, (1,1-^2H2)ethyl 2-[4-(1-methyl-1H-pyrazol-5-yl)piperidin-1-yl]-6-azaspiro[3.4]octane-6-carboxylate], the values for the EC50 in experiment [1] and in experiment [2] were > 20000 nM and 100 nM, respectively. Moreover, the figures for the maximum response (Emax) in experiment [1] and in experiment [2] were 6% and 69%, respectively.

On to `[2H]C([2H])([2H])COC(=O)N1CCC2(CC(N3CCC(c4ccnn4C)CC3)C2)C1` (single isomer, unassigned) [1-72 Isomer 2, (2,2,2-^2H3)ethyl 2-[4-(1-methyl-1H-pyrazol-5-yl)piperidin-1-yl]-6-azaspiro[3.4]octane-6-carboxylate], for which the EC50 in experiment [1] is > 20000 nM; in experiment [2] it was 158 nM. The Emax in experiment [1] came to 17%; in experiment [2], 69%.

As for `[2H]C([2H])([2H])C([2H])([2H])OC(=O)N1CCC2(CC(N3CCC(c4ccnn4C)CC3)C2)C1` (single isomer, unassigned) [1-73 Isomer 2, (^2H5)ethyl 2-[4-(1-methyl-1H-pyrazol-5-yl)piperidin-1-yl]-6-azaspiro[3.4]octane-6-carboxylate], in experiment [1], the EC50 is > 20000 nM and the Emax is 11%. Besides, in experiment [2], the EC50 is 126 nM and the Emax came out at 72%.

As to `CCC(=O)N1CCCC1C1CCN(C2CC3(CCN(C(=O)OC)C3)C2)CC1` (single isomer, unassigned) [2-5 Isomer 2, methyl 2-[4-(1-propanoylpyrrolidin-2-yl)piperidin-1-yl]-6-azaspiro[3.4]octane-6-carboxylate], the EC50 is 6310 nM in experiment [1] and 158 nM in experiment [2]. Further, the values for the Emax in experiment [1] and in experiment [2] were 34% and 66%, respectively.

Turning to `COC(=O)N1CCC2(CC(N3CCC(C4CCCN4C(=O)OC)CC3)C2)C1` (single isomer, unassigned) [2-10 Isomer 2, methyl 2-{4-[1-(methoxycarbonyl)pyrrolidin-2-yl]piperidin-1-yl}-6-azaspiro[3.4]octane-6-carboxylate], in experiment [1], the EC50 was > 20000 nM and the Emax was 19%. For the same compound, in experiment [2], the EC50 is 200 nM and the Emax is 50%.

In the case of `CCOC(=O)N1CCC2(CC(N3CCC(C4CCCN4C)CC3)C2)C1` (single isomer, unassigned) [2-22 Isomer 2, ethyl 2-[4-(1-methylpyrrolidin-2-yl)piperidin-1-yl]-6-azaspiro[3.4]octane-6-carboxylate], the figures for the EC50 in experiment [1] and in experiment [2] were > 20000 nM and 316 nM, respectively. Besides, the Emax is 7% in experiment [1] and 31% in experiment [2].
